Values of other authors in PMC11915028 (ACS Pharmacology & Translational Science, 2025).

Target: PSMA expression in PCa lesions (Homo sapiens, UniProt Q04609)
Excerpt: High tumor-to-background ratios are required for the detection of small cancer/metastatic lesions. The required ratio is ∼10 for the detection of lesions with about 1 cm diameter, but for the detection of smaller lesions (0.3 cm), the required ratio should be almost 90.[30]

PSMA expression in PCa lesions, sequence (Q04609 whole entry): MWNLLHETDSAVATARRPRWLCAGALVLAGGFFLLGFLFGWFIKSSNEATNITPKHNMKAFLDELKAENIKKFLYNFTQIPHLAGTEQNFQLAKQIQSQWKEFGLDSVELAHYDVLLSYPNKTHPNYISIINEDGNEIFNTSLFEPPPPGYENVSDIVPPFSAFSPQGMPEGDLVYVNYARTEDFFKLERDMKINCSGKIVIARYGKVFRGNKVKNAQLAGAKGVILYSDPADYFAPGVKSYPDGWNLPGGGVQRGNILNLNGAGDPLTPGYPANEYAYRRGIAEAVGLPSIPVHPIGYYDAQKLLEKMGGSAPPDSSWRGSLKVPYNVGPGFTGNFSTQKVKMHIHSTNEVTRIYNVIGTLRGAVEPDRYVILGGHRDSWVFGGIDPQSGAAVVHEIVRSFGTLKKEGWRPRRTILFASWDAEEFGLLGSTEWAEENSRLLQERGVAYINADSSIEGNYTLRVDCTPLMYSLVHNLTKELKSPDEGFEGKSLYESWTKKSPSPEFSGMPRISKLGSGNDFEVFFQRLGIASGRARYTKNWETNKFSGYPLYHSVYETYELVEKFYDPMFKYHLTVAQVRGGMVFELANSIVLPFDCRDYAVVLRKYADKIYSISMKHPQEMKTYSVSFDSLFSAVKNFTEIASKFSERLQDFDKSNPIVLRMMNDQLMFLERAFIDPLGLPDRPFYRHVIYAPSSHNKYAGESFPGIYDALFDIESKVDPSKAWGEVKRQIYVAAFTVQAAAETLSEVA

In the case of `O=C([O-])CN(CCN(CC(=O)[O-])Cc1cc(CCC(=O)NCCCCCC(=O)NCCCC[C@H](NC(=O)N[C@@H](CCC(=O)O)C(=O)O)C(=O)O)ccc1[O-])Cc1cc(CCC(=O)O)ccc1[O-].[68Ga+3].[OH3+]` [[^68Ga]Ga-PSMA-11], the “SUVmax, local recurrences of PCa” value (PET, three hours post-administration) is given as 3–39 and the “SUVmax, normal prostate gland tissue” value (human, in vivo) is given as 2−4.
